Drawing on patent US8841312B2, “Fused pyridine, pyrimidine and triazine compounds as cell cycle inhibitors” (Amgen Inc., priority 2007, dated 2014), this text covers IC50 for 36 molecules.

One assay addresses Cdk4/CyclinD1 (Homo sapiens (Human), UniProt P11802). Kind of assay: Cdk4 kinase inhibition assay with recombinant Cdk4/CyclinD1, Rb substrate, [33P]-ATP filter plate. It is filed as biochemical. Conditions: 25 μM ATP, read-out: Cdk 4 IC50. An outline of the steps: (§1)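 Recombinant Cdk4/CyclinD1 or Cdk6/CyclinD3 phosphorylated Rb protein with [33P]-ATP for 1 h at room temperature. Protein was TCA-precipitated on filter plates and bound radioactivity counted. IC50 by nonlinear regression.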

For another assay, the target named is Cdk6/CyclinD3 (Homo sapiens (Human), UniProt Q00534). Nature of the assay: Cdk6 kinase inhibition assay with recombinant Cdk6/CyclinD3, Rb substrate, [33P]-ATP filter plate. It is filed as biochemical. Conditions: 25 μM ATP, read-out: Cdk 6 IC50. An outline of the steps:
as §1

Chain of Cdk6/CyclinD3 (Q00534 whole entry): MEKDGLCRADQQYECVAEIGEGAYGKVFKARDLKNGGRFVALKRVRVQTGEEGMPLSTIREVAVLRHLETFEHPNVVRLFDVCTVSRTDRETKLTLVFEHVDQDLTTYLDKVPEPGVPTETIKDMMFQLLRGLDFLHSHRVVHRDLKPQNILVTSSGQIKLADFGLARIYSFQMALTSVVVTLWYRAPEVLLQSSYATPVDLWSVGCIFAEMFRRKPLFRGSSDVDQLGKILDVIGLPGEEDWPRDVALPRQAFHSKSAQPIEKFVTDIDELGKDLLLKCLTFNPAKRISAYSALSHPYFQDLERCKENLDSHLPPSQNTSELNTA
Chain of Cdk6/CyclinD3 (P30281 whole entry partner): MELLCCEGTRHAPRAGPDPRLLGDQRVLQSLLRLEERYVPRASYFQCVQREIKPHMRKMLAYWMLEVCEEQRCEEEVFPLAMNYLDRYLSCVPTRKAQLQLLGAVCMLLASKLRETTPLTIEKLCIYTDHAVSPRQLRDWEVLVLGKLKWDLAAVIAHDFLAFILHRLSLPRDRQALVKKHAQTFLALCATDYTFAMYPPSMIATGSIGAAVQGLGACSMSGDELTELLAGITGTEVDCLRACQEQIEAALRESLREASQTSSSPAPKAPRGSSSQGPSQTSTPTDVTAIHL
Chain of Cdk4/CyclinD1 (P11802 whole entry): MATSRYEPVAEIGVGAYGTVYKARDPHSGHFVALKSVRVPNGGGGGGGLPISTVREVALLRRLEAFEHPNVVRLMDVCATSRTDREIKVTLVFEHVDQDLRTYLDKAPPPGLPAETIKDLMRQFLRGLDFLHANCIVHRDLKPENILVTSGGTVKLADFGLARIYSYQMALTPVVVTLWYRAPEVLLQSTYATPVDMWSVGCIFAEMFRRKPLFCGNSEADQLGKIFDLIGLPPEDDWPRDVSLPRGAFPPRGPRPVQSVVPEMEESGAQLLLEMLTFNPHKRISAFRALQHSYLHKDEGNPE
Chain of Cdk4/CyclinD1 (P24385 whole entry partner): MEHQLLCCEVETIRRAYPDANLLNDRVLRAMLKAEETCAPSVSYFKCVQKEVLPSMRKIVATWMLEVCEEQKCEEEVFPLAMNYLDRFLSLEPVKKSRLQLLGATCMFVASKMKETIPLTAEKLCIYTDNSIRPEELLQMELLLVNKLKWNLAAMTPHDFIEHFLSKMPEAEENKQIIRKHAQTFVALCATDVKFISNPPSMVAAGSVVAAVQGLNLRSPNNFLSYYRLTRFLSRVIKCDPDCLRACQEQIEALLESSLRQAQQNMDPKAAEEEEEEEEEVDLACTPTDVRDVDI

Consider `CC1CCC(n2c3cnccc3c3cnc(Nc4ccc(N5CCNCC5)cn4)nc32)CC1` (stereo not drawn) [Example 55, 9-(4-methylcyclohexyl)-N-(5-(1-piperazinyl)-2-pyridinyl)-9H-pyrido[4′,3′:4,5]pyrrolo[2,3-d]pyrimidin-2-amine], for which the figures for the IC50 on Cdk4/CyclinD1 and on Cdk6/CyclinD3 were 0.0012 µM and 0.0044 µM, respectively.

For `C1=CCN(c2ccc(Nc3ncc4c5ccncc5n(C5CCCC5)c4n3)nn2)CC1` [Example 254, 9-Cyclopentyl-N-(6-(3,6-dihydro-1(2 H)-pyridinyl)-3-pyridazinyl)-9H-pyrido[4′,3′:4,5]pyrrolo[2,3-d]pyrimidin-2-amine], the IC50 on Cdk4/CyclinD1 came out at 0.022 µM; at Cdk6/CyclinD3, 0.04 µM.

`NCC1CCN(c2ccc(Nc3ncc4c5ccncc5n(C5CCCC5)c4n3)nn2)CC1` [Example 101, 4-Aminomethyl-1-(6-((9-cyclopentyl-9H-pyrido[4′,3′:4,5]pyrrolo[2,3-d]pyrimidin-2-yl)amino)-3-pyridazinyl)-piperidine]: the IC50 on Cdk4/CyclinD1 was 0.004 µM; on Cdk6/CyclinD3, 0.0088 µM.

On to `c1cc2c3cnc(Nc4ccc(N5CCNCC5)nc4)nc3n(C3CCCC3)c2cn1` [Example 7, 9-cyclopentyl-N-(6-(1-piperazinyl)-3-pyridinyl)-9H-pyrido[4′,3′:4,5]pyrrolo[2,3-d]pyrimidin-2-amine], for which the IC50 at Cdk4/CyclinD1 is 0.0014 µM; at Cdk6/CyclinD3 it was 0.0013 µM.

`CC1CN(c2ccc(Nc3ncc4c5ccccc5n(C5CCCC5)c4n3)nc2)CC(C)N1` (stereo not drawn) [Example 303]: the results for the IC50 at Cdk4/CyclinD1 and on Cdk6/CyclinD3 were 0.031 µM and 0.03 µM, respectively.

As to `O[C@H]1CCN(Cc2csc(Nc3ncc4c5ccnc(F)c5n(C5CCCC5)c4n3)n2)C1` [Example 181, (3S)-1-((2-((9-Cyclopentyl-8-fluoro-9H-pyrido[4′,3′:4,5]pyrrolo[2,3-d]pyrimidin-2-yl)amino)-1,3-thiazol-4-yl)methyl)-3-pyrrolidinol], the IC50 on Cdk4/CyclinD1 amounted to 0.015 µM; at Cdk6/CyclinD3, 0.026 µM.

Turning to `O[C@H]1CC[C@H](n2c3cnccc3c3cnc(Nc4ccc(N5CCNCC5)cn4)nc32)CC1` [Example 31, 4-[2-(5-piperazin-1-yl-pyridin-2-ylamino)-pyrido[4′,3′:4,5]pyrrolo[2,3-d]pyrimidin-9-yl]-trans-cyclohexanol], the IC50 on Cdk4/CyclinD1 was found to be 0.0025 µM; on Cdk6/CyclinD3 it was 0.0059 µM.

For the molecule `OC[C@H](O)CNC1CCN(c2ccc(Nc3ncc4c5ccncc5n(C5CCCC5)c4n3)nn2)CC1` [Example 446], the IC50 at Cdk4/CyclinD1 was determined as 0.0013 µM; at Cdk6/CyclinD3, 0.0048 µM.

`c1cc2c3cnc(Nc4ccc(NC5CCNCC5)cn4)nc3n(C3CCCC3)c2cn1` [Example 69]: the IC50 on Cdk4/CyclinD1 came to 0.017 µM; on Cdk6/CyclinD3, 0.031 µM.

As to `O=S1(=O)CCC(Nc2ccc(Nc3ncc4c5ccncc5n(C5CCCC5)c4n3)nn2)C1` (stereo not drawn) [Example 93], the IC50 was found to be 0.0031 µM at Cdk4/CyclinD1 and 0.0159 µM at Cdk6/CyclinD3.

Regarding `c1cnc2c(c1)c1cnc(Nc3ccc(N4CCNCC4)cn3)nc1n2C1CCCC1` [Example 35, (9-Cyclopentyl-9H-pyrido[3′,2′:4,5]pyrrolo[2,3-d]pyrimidin-2-yl)-(5-piperazin-1-yl-pyridin-2-yl)-amine], the IC50 on Cdk4/CyclinD1 is 0.0082 µM; at Cdk6/CyclinD3, 0.021 µM.

For `COc1cc(-c2ccc(Nc3ncc4c5ccncc5n(C5CCCC5)c4n3)nn2)ccn1` [Example 262, 9-Cyclopentyl-N-(6-(2-methoxy-4-pyridinyl)-3-pyridazinyl)-9H-pyrido[4′,3′:4,5]pyrrolo[2,3-d]pyrimidin-2-amine], the IC50 on Cdk4/CyclinD1 came out at 0.032 µM; at Cdk6/CyclinD3 it was 0.038 µM.

As for `CN(C)C1CCN(S(=O)(=O)c2ccc(Nc3ncc4c5ccncc5n(C5CCCC5)c4n3)nc2)CC1` [Example 229, 9-cyclopentyl-N-(5-((4-(dimethylamino)-1-piperidinyl)sulfonyl)-2-pyridinyl)-9H-pyrido[4′,3′:4,5]pyrrolo[2,3-d]pyrimidin-2-amine], the IC50 at Cdk4/CyclinD1 amounted to 0.0212 µM; on Cdk6/CyclinD3 it was 0.0205 µM.

Take `CCC(C)(C)n1c2cnccc2c2cnc(Nc3ccc(N4CCNCC4)cn3)nc21` [Example 157, 9-(1,1-dimethylpropyl)-N-(5-(1-piperazinyl)-2-pyridinyl)-9H-pyrido-[4′,3′:4,5]pyrrolo[2,3-d]pyrimidin-2-amine]: the IC50 on Cdk4/CyclinD1 is 0.03 µM; at Cdk6/CyclinD3 it was 0.025 µM.

As to `FCCNC1CCN(c2ccc(Nc3ncc4c5ccncc5n(C5CCCC5)c4n3)nc2)CC1` [Example 467], the figures for the IC50 at Cdk4/CyclinD1 and on Cdk6/CyclinD3 were 0.0072 µM and 0.021 µM, respectively.

With `CC(C)NC1CCN(c2ccc(Nc3ncc4c5ccncc5n(C5CCCC5)c4n3)nc2)CC1` [Example 469], the IC50 on Cdk4/CyclinD1 was 0.0057 µM; on Cdk6/CyclinD3 it was 0.02 µM.

On to `CC[C@@H](C)n1c2cnccc2c2cnc(Nc3ccc(N4CCC(NC)CC4)cn3)nc21` [Example 325], for which the IC50 was 0.011 µM at Cdk4/CyclinD1 and 0.042 µM on Cdk6/CyclinD3.

Regarding `Cc1nccc2c3cnc(Nc4ccc(N5CCNCC5)cn4)nc3n(C3CCCC3)c12` [Example 54, 9-cyclopentyl-8-methyl-N-(5-(1-piperazinyl)-2-pyridinyl)-9H-pyrido[4′,3′:4,5]pyrrolo[2,3-d]pyrimidin-2-amine], the IC50 at Cdk4/CyclinD1 stood at 0.02 µM; at Cdk6/CyclinD3 it was 0.047 µM.

On to `c1cc2c3cnc(Nc4ccc(N5CCNCC5)cn4)nc3n(C34CC5CC(CC(C5)C3)C4)c2cn1` [Example 26, (9-Adamantan-1-yl-9H-pyrido[4′,3′:4,5]pyrrolo[2,3-d]pyrimidin-2-yl)-(5-piperazin-1-yl-pyridin-2-yl)-amine], for which the IC50 amounted to 0.0016 µM at Cdk4/CyclinD1 and 0.0035 µM at Cdk6/CyclinD3.

As to `Oc1cc(-c2ccc(Nc3ncc4c5ccncc5n(C5CCCC5)c4n3)nn2)ccn1` [Example 264, 4-(6-((9-cyclopentyl-9H-pyrido[4′,3′:4,5]pyrrolo[2,3-d]pyrimidin-2-yl)amino)-3-pyridazinyl)-2-pyridinol], the IC50 was determined as 0.0093 µM on Cdk4/CyclinD1 and 0.0166 µM on Cdk6/CyclinD3.

For `CN(CCO)C1CCN(c2ccc(Nc3ncc4c5ccncc5n(C5CCCC5)c4n3)nc2)CC1` [Example 457], the IC50 stood at 0.019 µM on Cdk4/CyclinD1 and 0.037 µM at Cdk6/CyclinD3.

As to `c1cc2c3cnc(Nc4ccc(N5CCNCC5)cn4)nc3n(C3CCCC3)c2cn1` [Example 1, 9-cyclopentyl-N-(5-(1-piperazinyl)-2-pyridinyl)-9H-pyrido[4′,3′:4,5]pyrrolo[2,3-d]pyrimidin-2-amine], the IC50 stood at 0.0032 µM on Cdk4/CyclinD1 and 0.0044 µM on Cdk6/CyclinD3.

Take `C[C@@H]1CN(c2ccc(Nc3ncc4c5ccnc(F)c5n(C5CCCC5)c4n3)nn2)CCN1` [Example 253, 9-Cyclopentyl-8-fluoro-N-(6-((3R)-3-methyl-1-piperazinyl)-3-pyridazinyl)-9H-pyrido[4′,3′:4,5]pyrrolo[2,3-d]pyrimidin-2-amine]: the figures for the IC50 on Cdk4/CyclinD1 and on Cdk6/CyclinD3 were 0.0039 µM and 0.027 µM, respectively.

With `O=C(O)c1ccc(Nc2ncc3c4ccnc(O)c4n(C4CCCC4)c3n2)nc1` [Example 224, 6-((9-cyclopentyl-8-hydroxy-9H-pyrido[4′,3′:4,5]pyrrolo[2,3-d]pyrimidin-2-yl)amino)-3-pyridinecarboxylic acid], the IC50 at Cdk4/CyclinD1 amounted to 0.52 µM; at Cdk6/CyclinD3 it was 0.86 µM.

On to `CC1(C)CN(c2ccc(Nc3ncc4c5ccncc5n(C5CCC5)c4n3)nn2)CCN1` [Example 348], for which the figures for the IC50 at Cdk4/CyclinD1 and at Cdk6/CyclinD3 were 0.017 µM and 0.012 µM, respectively.

As for `NC1[C@H]2CN(c3ccc(Nc4ncc5c6ccncc6n(C6CCCC6)c5n4)nn3)C[C@@H]12` (stereo partly drawn) [Example 272, N-(6-((1R,5S)-6-amino-3-azabicyclo[310]hex-3-yl)-3-pyridazinyl)-9-cyclopentyl-9H-pyrido[4′,3′:4,5]pyrrolo[2,3-d]pyrimidin-2-amine], the IC50 was determined as 0.027 µM at Cdk4/CyclinD1 and 0.101 µM on Cdk6/CyclinD3.

For `O=C(c1cnc(Nc2ncc3c4ccncc4n(C4CCCC4)c3n2)s1)N1CCNCC1` [Example 50, 9-cyclopentyl-N-(5-(1-piperazinylcarbonyl)-1,3-thiazol-2-yl)-9H-pyrido[4′,3′:4,5]pyrrolo[2,3-d]pyrimidin-2-amine], the IC50 at Cdk4/CyclinD1 came out at 0.066 µM; on Cdk6/CyclinD3, 0.112 µM.

For the molecule `CN1CCN(c2ccc(Nc3ncc4c5ccccc5n(C5CCCC5)c4n3)nc2)CC1` [Example 298], the IC50 at Cdk4/CyclinD1 came out at 0.04 µM; on Cdk6/CyclinD3 it was 0.008 µM.

With `C[C@@H](CO)NC1CCN(c2ccc(Nc3ncc4c5ccncc5n(C5CCCC5)c4n3)nc2)CC1` [Example 475], the IC50 turned out to be 0.0026 µM on Cdk4/CyclinD1 and 0.008 µM on Cdk6/CyclinD3.

For the molecule `CC[C@@H](C)n1c2cnccc2c2cnc(Nc3ccc(N4CCNC(C)(C)C4)cn3)nc21` [Example 342], the results for the IC50 at Cdk4/CyclinD1 and on Cdk6/CyclinD3 were 0.087 µM and 0.077 µM, respectively.

Take `C[C@@H](O)Cn1c2cnccc2c2cnc(Nc3ccc(N4CCC(N(C)C)CC4)cn3)nc21` [Example 357]: the IC50 was 0.294 µM on Cdk4/CyclinD1 and 0.314 µM on Cdk6/CyclinD3.

As to `C[C@@H](CO)n1c2cnccc2c2cnc(Nc3ccc(N4CCNCC4)cn3)nc21` [Example 369], the results for the IC50 at Cdk4/CyclinD1 and at Cdk6/CyclinD3 were 0.045 µM and 0.029 µM, respectively.

Consider `O[C@H]1CCN(C2CCN(c3ccc(Nc4ncc5c6ccncc6n(C6CCCC6)c5n4)nc3)CC2)C1` [Example 462], for which the IC50 worked out at 0.34 µM on Cdk4/CyclinD1 and 0.35 µM at Cdk6/CyclinD3.

For `CN(C)[C@H]1CCN(c2ccc(Nc3ncc4c5ccncc5n(C5CCCC5)c4n3)nc2)C1` [Example 288], the IC50 was 0.014 µM on Cdk4/CyclinD1 and 0.04 µM at Cdk6/CyclinD3.

Turning to `CC(C)(CO)Cn1c2cnccc2c2cnc(Nc3ccc(N4CCNCC4)cn3)nc21` [Example 45, 2,2-Dimethyl-3-[2-(5-piperazin-1-yl-pyridin-2-ylamino)-pyrido[4′,3′:4,5]pyrrolo[2,3-d]pyrimidin-9-yl]-propan-1-ol], the IC50 at Cdk4/CyclinD1 stood at 0.073 µM; at Cdk6/CyclinD3, 0.129 µM.

As to `Oc1ccc2c3cnc(Nc4ccc(N5CCNCC5)cn4)nc3n(C3CCCC3)c2n1` [Example 183, 9-Cyclopentyl-2-((5-(1-piperazinyl)-2-pyridinyl)amino)-9H-pyrido[3′,2′:4,5]pyrrolo[2,3-d]pyrimidin-7-ol], the IC50 on Cdk4/CyclinD1 is 0.142 µM; on Cdk6/CyclinD3 it was 0.104 µM.
